Assay results as given in US20220016197A1, “ZINGIBER ZERUMBET EXTRACT FOR COMBATING DANDRUFF” (PIERRE FABRE DERMO-COSMETIQUE, priority 2018, published 2022).

Tested on: Malassezia furfur CBS1878
Test: Anti Malassezia activity: enumeration of residual microorganisms after contact with test product
Type: cell-based
Conditions: for Enumeration of residual microorganisms after contact: product in mixture A inoculated with 1% inoculum of M. furfur at 10^7 CFU/ml; for log reduction value: versus initial number of microorganisms
Experimental: Indeed, M. furfur may proliferate anew if it is not completely or sufficiently removed. […] This component is generally measured by estimating the decay of microbial colonies over time.
Five formulas are tested in this test: • A compound used as reference: zinc pyrithione at 1.0% w/w in a mixture A comprising: sodium laureth sulfate 14.3%, alkyl dimethyl betaine 10.0%, decyl glucoside 3.8%, sorbitan monolaurate 2.0%, citric acid monohydrate 10% solution, qs pH=5; water qs 100; • A Zingiber zerumbet rhizome extract obtained by heptanic extraction from the dry and ground rhizome, at 2.0% w/w in mixture A; • A Zingiber zerumbet rhizome extract obtained by ethanolic extraction, at 2.0% w/w in mixture A; • A Zingiber zerumbet rhizome extract obtained by supercritical CO2 in a water-soluble excipient (butylene glycol) at 3.0% w/w in mixture A. This is a commercial material called Legance®, sold by the firm Sederma. The INCI name of this material is: Butylene glycol-Zingiber Zerumbet Extract.
An inoculation of 20 g of test product is carried out with 1% inoculum of Malassezia furfur titrating at 10^7 CFU/ml. After a determined contact time, 1 g of product is taken and a 1/10 dilution is carried out in the neutralizing diluent. Successive dilutions at 1/10 up to 1/1000 dilution are carried out in the diluent. 1 ml is filtered on a 0.45 μm membrane in ester and cellulose acetate in the presence of 50 ml of sterile demineralized water (SDW), then two rinses are carried out with 50 ml of SDW.
The chosen contact times are 1 h, 2 h, 5 h and 8 hours. The neutralizing diluent is TSB+10% polysorbate 80, the diluent is tryptone-salt. The rinsing liquid is sterile demineralized water.

zinc pyrithione [Compound 1]
activity on Malassezia furfur (in words): shows activity on Malassezia furfur from 1 hour of contact | reduction in the number of microorganisms (8 hours of contact): exceeds 3 log | Enumeration of residual microorganisms after contact (contact time 1 hour): 7.2 × 10^4 CFU/g | log reduction value (contact time 1 hour): 0.23 | Enumeration of residual microorganisms after contact (contact time 2 hours): 4.8 × 10^4 CFU/g | log reduction value (contact time 2 hours): 0.40 | Enumeration of residual microorganisms after contact (contact time 5 hours): 4.9 × 10^3 CFU/g | log reduction value (contact time 5 hours): 1.39 | Enumeration of residual microorganisms after contact (contact time 8 hours): <1.0 × 10^2 CFU/g | log reduction value (contact time 8 hours): >3.08
